Source: US20030026831A1, “Anionic liposomes for delivery of bioactive agents” (priority 2001, published 2003)
Read-outs that look alike come from different tables or passages of the source.

How the values were obtained:
hippocampal neurons [1] = assay type: cell-based, rat; conditions: for Neuronal survival after glutamate: survival at 48 hours
Procedure: Hippocampal Cell Culture. Primary cultures of hippocampal neurons were prepared from neonatal rat pups (p1 or p2) as previously described (Dubinsky, 1993). Neurons were plated at a density of 60,000 cells/cm^2 onto polylysine-coated plastic 12-well plates or 100 mm dishes (Becton Dickinson, Franklin Lakes, N.J.) in Neurobasal medium with B27 supplements (Life technologies, Rockville, Md.) and 0.5 mM glutamine. Fluorodeoxyuridine (15 μg/ml) was added to the cultures 24 hours after plating to inhibit glial growth. Under these culture conditions, the survival and growth of non-neuronal cells was minimized. Cells were maintained at 37° C. in 95% air/5% CO2 and were used between 6-8 days in vitro.
Neuroprotection Experiments. […] The ratio of viable cells to the total number of neurons in the pre-selected fields was calculated for quantifying survival.

hippocampal neurons [2] = assay: Lipid exacerbation of sub-maximal glutamate toxicity
Procedure: FIG. 9. […] Arrowhead: amount of anionic lipid present in liposomes corresponding to a 1 μM final concentration of ON. Arrow: amount of cationic lipid present in complexes corresponding to a +/−charge ratio of 1/2 and 1 μM final concentration of ON. 20, 40, and 100 μg DC-Chol/DOPE correspond to amounts present in complexes of +/−charge ratio 1.6/1, 3.2/1, and 8/1 (μmole lipid/μmole ON), respectively, for a 1 μM final ON concentration. Data expressed as Mean ±S.E.M., n≧9.
Neurons were treated with amounts of cationic lipid required to complex 1 μM ONs in +/−charge ratios (μmole lipid/μmole ON) of 1/2, 1.6/1, 3.2/1 and 8/1 (6.25, 20, 40 and 100 μg DC-Chol, respectively).

neurons = assay: Toxicity screening of commercial cationic lipids; conditions: 8 hours after incubation, compared to untreated controls
hippocampal neurons [3] = assay: Neuronal calcium (Fura-2) during perfusion of liposomes; assay type: cell-based, rat; conditions: continuous perfusion of N-Rh-DOPE labeled liposomes; 100 μM NMDA as positive stimulus
Procedure: FIG. 4. […] (a) Neurons were treated with 100 μg/ml heparin prior to incubation with AL-Cy3ON. Scale bar: 5 μm. (b) Fura-2 ratios in hippocampal neurons were not altered during perfusion of anionic liposomes labeled with N—Rh-DOPE but increased in response to 100 μM NMDA. Data were from a representative field of 23 neurons from among 110 neurons imaged in 5 experiments. (c) Image taken at 24 min (*) indicated the uptake of N-Rh-DOPE within the same neurons in the field.
Addition of activated a2-M (a2-M*) to cortical neurons caused a Ca^2+ influx that was both spatially and temporally discrete. […] To examine whether the endocytosis of anionic liposomes via LRP caused Ca^2+ influx into neurons, neuronal calcium currents were studied during a continuous perfusion of liposomes labeled with N—Rh-DOPE.
Liposomes labeled with N—Rh-DOPE were prepared in a manner identical to that described in Example 1 for liposomes encapsulating Cy3ONs except that the lipid films contained 1-2.5 mole percent N—Rh-DOPE and the liposomes were prepared with buffer alone (i.e., without ONs).

hippocampal neurons [4] = assay: Endocytosis assays: agents acting on AL-Cy3ON internalization; assay type: cell-based, rat; conditions: 10 minutes pretreatment (0.45 M sucrose, 1 μM FK506, 500 nM RAP, 100 μg/ml heparin or protamine sulfate, 5 μg/ml nocodazole, 10 μg/ml cytochalasin D, 100 nM wortmannin), then AL-Cy3ONs 30 minutes at 37° C.
Procedure: Endocytosis Assays. The following agents were used to manipulate specific steps of the endocytic cycle: 0.45 M hyperosmolar sucrose (ICN biochemicals), 1 μM FK-506 (Calbiochem), and 100 nM wortmannin, 5 μg/ml nocodazole, 10 μg/ml cytochalasin D, 100 μg/ml heparin and 100 μg/ml protamine sulfate, (all from Sigma-Aldrich). Receptor-associated protein (RAP) was a generous gift from Dr. Guojun Bu (Washington University, St. Louis, Mo.) and was used at a concentration of 500 nM (Bu et al., 1994). Cells were treated with the drugs or RAP for 10 minutes prior to incubation with AL-Cy3ONs for 30 minutes at 37° C. and fixed for imaging.
(§1) Confocal Microscopy and Image Analysis. Imaging was performed on a Leica TCS 4D confocal microscope (Deerfield, Ill.) equipped with a Mercury/Xenon lamp and argon/krypton laser. Cells were excited using the 488 nm laser line to detect Oregon Green 488-Transferrin and Alexa488-Dextran, and the emitted fluorescence was collected using a 515 long-pass filter. The 568 nm laser line was used to excite Cy3 and N—Rh-DOPE (LP590 emission). Cells were imaged at a plane midway between the substrate-attached plasma membrane and the top of the cell, such that neuronal nuclei were clearly identifiable. In some cases, the entire volume of the cell was scanned in 0.5 μm increments. Optimal images were obtained by averaging 16 images in the line-scan mode at the same fixed gains for all experiments. All fluorescent images presented in figures were equally contrast enhanced using ADOBE PHOTOSHOP (Adobe, Mountain View, Calif.).

hippocampal neurons [5] = assay: Colocalization with dextran (late endosomes and lysosomes); assay type: cell-based, rat; conditions: 3 h; delivered in anionic liposomes
Procedure: (§2) Colocalization of Lipids and Oligonucleotides with Transferrin and Dextran. Intracellular fates of endocytosed liposomes and ONs were determined by comparing their intracellular distributions with that of Oregon Green 488-Transferrin (OG-Tf) and Alexa488-dextran (Molecular Probes, Eugene, Oreg.) used as markers for the recycling and lysosomal compartments, respectively. Neurons were incubated with AL-Cy3ONs and either 100 μg/ml OG-Tf, for 30 minutes, 1 hour or 3 hours; or with 1 mg/ml Alexa488-dextran for 3 hours. For the lipid transport experiments, neurons were incubated with liposomes labeled with N—Rh-DOPE and either OG-TF, for 30 minutes, 1 hour, or 3 hours; or with 1 mg/ml Alexa-dextran for 3 hours. In another set of experiments, neurons were incubated with AL-Cy3ONs for 30 minutes, rinsed and chased with 1 mg/ml Alexa 488 dextran for 3 hours. Cells were rinsed and fixed for imaging as described above.
as §1, with “Optimal images were obtained by averaging 16 images in the line-scan mode at the same fixed gains for all experiments. All fluorescent images presented in figures were equally contrast enhanced using ADOBE PHOTOSHOP (Adobe, Mountain View, Calif.).” left out
(§3) All image analysis was performed using the METAMORPH Imaging System software (Universal Imaging, Downington, Pa.). The cell outlines for each set of double-labeled fields were traced out manually in the corresponding differential interference contrast image and then used to mask the fluorescence images. In each cell, the total fluorescence intensity was measured and the percent of Cy3 label or rhodamine label that colocalized with transferrin or dextran was calculated.

hippocampal neurons [6] = assay: Colocalization with transferrin (early and recycling endosomes); assay type: cell-based, rat; conditions: delivered in anionic liposomes
Procedure: as §2, §1, §3

[7] = 20 μM each, added 1-2 minutes before 50 μM glutamate
[8] = Lipid/ON (+/−) charge ratio 1/1
[9] = Lipid/ON (+/−) charge ratio 2/1

N#Cc1cc2[nH]c(=O)c(=O)[nH]c2cc1[N+](=O)[O-] [CNQX]
Neuronal survival after glutamate (hippocampal neurons [1]; [7]): significantly increased the survival of glutamate-treated neurons

CC(C)CCC[C@@H](C)[C@H]1CC[C@H]2[C@@H]3CC=C4C[C@@H](OC(=O)NCCN(C)C)CC[C@]4(C)[C@H]3CC[C@]12C [DC-Chol, 3β-[N-(N′,N′-dimethylaminoethane)-carbamol] cholesterol]
Neuronal survival (hippocampal neurons [2]; 6.25 μg DC-Chol (+/− charge ratio 1/2 for 1 μM ON), 48 hours post-glutamate): survived 48 hours post-glutamate
Neuronal survival (hippocampal neurons [2]; 20, 40 and 100 μg DC-Chol (charge ratios 1.6/1, 3.2/1, 8/1), 48 hours post-glutamate): caused extensive neuronal loss
% Neuronal survival (neurons; [8]): 45.7%
% Neuronal survival (neurons; [9]): 17.3%

CCCCCCCC/C=C\CCCCCCCC(=O)OC[C@H](COP(=O)(O)OC[C@H](N)C(=O)O)OC(=O)CCCCCCC/C=C\CCCCCCCC [DOPS, 1,2-dioleoyl-sn-glycero-3-[phospho-L-serine]]
Neuronal survival (hippocampal neurons [2]; 40 μg lipid (liposomes without AsONs), then 10 μM glutamate for 48 hours): 48%
Effect of increasing amounts of lipid on glutamate toxicity (hippocampal neurons [2]; liposomes without AsONs, then 10 μM glutamate for 48 hours): dose-dependently exacerbate toxicity

CCCCCCCC/C=C\CCCCCCCC(=O)OCC(C[N+](C)(C)C)OC(=O)CCCCCCC/C=C\CCCCCCCC (stereo not shown) [DOTAP, 1,2-dioleoyl-3-trimethylammonium-propane]
% Neuronal survival (neurons; [8]): 28.2%
% Neuronal survival (neurons; [9]): ˜0%

C[C@]12N[C@H](Cc3ccccc31)c1ccccc12 [MK-801]
Neuronal survival after glutamate (hippocampal neurons [1]; [7]): significantly increased the survival of glutamate-treated neurons

CN[C@H](CC(=O)O)C(=O)O [NMDA]
Calcium response (Fura-2 ratios) in hippocampal neurons (hippocampal neurons [3]): increased

Cc1ccc(C(=O)Cn2c3c(sc2=N)CCCC3)cc1 [PFT-α, Pifithrin-α]
Concentrations toxic in hippocampal cultures (hippocampal neurons [1]): 20 to 100 µM
Neuronal survival after glutamate (hippocampal neurons [1]; 10 μM, added 3 hours before 50 μM glutamate): significantly increased the survival of glutamate-treated neurons
Concentrations not protective (hippocampal neurons [1]; 50 μM glutamate): 0.5 to 7 µM

C=C1[C@@H](C)[C@H]2[C@H](Cc3ccccc3)NC(=O)[C@]23[C@H](OC(C)=O)/C=C/[C@@](C)(O)C(=O)[C@@H](C)C/C=C/[C@H]3[C@@H]1O [cytochalasin D]
Effect on binding/internalization of AL-Cy3ONs by neurons (hippocampal neurons [4]): prevented both binding and internalization of the liposomes

N[C@@H](CCC(=O)O)C(=O)O [glutamate]
Neuronal survival (hippocampal neurons [2]; 48 hour exposure to 10 μM glutamate alone): 71%

COC(=O)Nc1nc2ccc(C(=O)c3cccs3)cc2[nH]1 [nocodazole]
Effect on binding/internalization of AL-Cy3ONs by neurons (hippocampal neurons [4]): intracellular transport was inhibited

OC[C@H]1O[C@@](CO)(O[C@H]2O[C@H](CO)[C@@H](O)[C@H](O)[C@H]2O)[C@@H](O)[C@@H]1O [sucrose]
Effect on binding/internalization of AL-Cy3ONs by neurons (hippocampal neurons [4]): completely prevented internalization

Lissamine Rhodamine DOPE [N-Rh-DOPE]
Percent colocalization with Dextran (hippocampal neurons [5]): 22.18 ± 1.5%
Percent colocalization with Transferrin (hippocampal neurons [6]; 30 min): 45.56 ± 2.2%
Percent colocalization with Transferrin (hippocampal neurons [6]; 1 h): 51.88 ± 2.7%

RAP: 39 kDa LRP receptor-associated protein, inhibitor of all known ligand interactions of LRP
Effect on binding/internalization of AL-Cy3ONs by neurons (hippocampal neurons [4]): both binding and internalization of anionic liposomes was inhibited

heparin
Effect on binding/internalization of AL-Cy3ONs by neurons (hippocampal neurons [4]): Neither heparin nor protamine altered the level of Cy3 fluorescence within neurons

p53 phosphodiester AsONs: free phosphodiester 5′-CTGTGAATCCTCCATGAC-3′ (SEQ ID NO:2) (unmodified DNA; listed as Rattus norvegicus)
Neuroprotection by free ONs (hippocampal neurons [1]; without encapsulation in anionic liposomes, 50 μM glutamate, 48 hours): not neuroprotective

protamine sulfate
Effect on binding/internalization of AL-Cy3ONs by neurons (hippocampal neurons [4]): Neither heparin nor protamine altered the level of Cy3 fluorescence within neurons
